24 compounds from patent US6794379B2, “CXCR3 antagonists” (Tularik Inc., priority 2001, dated 2004) can be followed below.

Structures can show the parent of a compound that is named as a salt.

As usually defined, the melting point is the temperature, or range, at which the solid turns liquid. In turn, `CC(c1nc2ccccc2c(=O)n1-c1ccc(F)cc1)N(CCN(C)C)C(=O)Cc1ccccc1` (stereo not drawn) returned a melting point of 153 °C. For `Cc1ccc(CC(=O)N(CCN(C)C)C(C)c2nc3ccccc3c(=O)n2-c2ccc(F)cc2)cc1` (stereo not drawn) the value was 188.3 °C. For `CCOCCN(C(=O)Cc1ccc(-c2ccccc2)cc1)C(C)c1nc2ccccc2c(=O)n1-c1ccc(OCC)cc1` (stereo not drawn) the value was 98.1 °C. `C[C@H](c1nc2ccccc2c(=O)n1-c1ccc(F)cc1)N(Cc1nccs1)C(=O)Cc1ccc(C(F)(F)F)cc1`: the melting point is 173 to 174 °C. For `CCOc1ccc(-n2c(C(C)N(Cc3ccccn3)C(=O)Cc3ccc(C(F)(F)F)cc3)nc3ccccc3c2=O)cc1` (stereo not drawn) (as salt: hydrochloride) [Compound 3.04, 2-((N-2-Picolyl)-N-(4-trifluoromethylphenylacetyl)-1-aminoethyl)-3-(4-ethoxyphenyl) -3H-quinazoline-4-one] the value was 167.5 °C; for `CC(c1nc2ccccc2c(=O)n1-c1ccc(F)cc1)N(Cc1cccnc1)C(=O)Cc1ccc(C(F)(F)F)cc1` (racemic), 167 °C.

In turn, `CC(c1nc2ccccc2c(=O)n1-c1ccc(F)cc1)N(CCN(C)C)C(=O)c1ccc(-c2ccccc2)cc1` (stereo not drawn) [Compound 1.06] had a melting point of 147.3 °C.

Compound `COCCN(C(=O)Cc1ccc(-c2ccccc2)cc1)C(C)c1nc2ccccc2c(=O)n1-c1ccc(F)cc1` (stereo not drawn) [Compound 1.17] came in with a melting point of 153.8 °C. As for `CCOCCN(C(=O)Cc1ccc(-c2ccccc2)cc1)C(C)c1nc2ccccc2c(=O)n1-c1ccc(F)cc1` (stereo not drawn) [Compound 1.19], the figure is 150.6 °C; as for `COc1ccc(-n2c(C(C)N(CCN3CCCC3)C(=O)Cc3ccc(-c4ccccc4)cc3)nc3ccccc3c2=O)cc1F` (stereo not drawn) [Compound 1.33], 96.9 °C; as for `COc1ccc(-n2c(C(C)N(CCN3CCCC3)C(=O)Cc3ccc(-c4ccccc4)cc3)nc3ccccc3c2=O)cc1` (stereo not drawn) [Compound 1.34], 116.3 °C. For `COc1ccc(-n2c(C(C)N(CCN(C)C)C(=O)Cc3ccc(OCc4ccccc4)cc3)nc3ccccc3c2=O)cc1` (stereo not drawn) [Compound 1.36] the value was 61.3 °C; for `C#Cc1ccc(-n2c(C(C)N(CCOC)C(=O)Cc3ccc(-c4ccccc4)cc3)nc3ccccc3c2=O)cc1` (stereo not drawn) [Compound 3.12, 2-((N-2-Methoxyethyl)-N-(4-phenylphenylacetyl)-1-aminoethyl)-3-(4-ethynylphenyl) -3H-quinazoline-4-one], 73.3 °C; for `CC(=O)CN(C(=O)Cc1ccc(C(F)(F)F)cc1)[C@H](C)c1nc2ccccc2c(=O)n1-c1ccc(F)cc1` [Compound 3.22], 220 to 221 °C.

`CCOCCN(C(=O)Cc1cc(C(F)(F)F)cc(C(F)(F)F)c1)[C@H](C)c1nc2ccccc2c(=O)n1-c1ccc(OCC)cc1` [Compound 3.25]: the melting point lay in the range of 57 to 60 °C. As for `CCOCCN(C(=O)Cc1ccc(F)c(C(F)(F)F)c1)[C@H](C)c1nc2ccccc2c(=O)n1-c1ccc(OCC)cc1` [Compound 3.26], the figure is 137 to 138 °C; as for `CCOCCN(C(=O)Cc1ccc(C(F)(F)F)c(F)c1)[C@H](C)c1nc2ccccc2c(=O)n1-c1ccc(OCC)cc1` [Compound 3.27], 146 to 148 °C; as for `CCOc1ccc(-n2c([C@@H](C)N(Cc3cccnc3)C(=O)Cc3ccc(OCC(F)(F)F)cc3)nc3ccccc3c2=O)cc1` [Compound 3.28], 103 to 104 °C. For `CCOCCN(C(=O)Cc1ccc(OC(F)(F)F)cc1)C(C)c1nc2ccccc2c(=O)n1-c1ccc(OCC)cc1` (stereo not drawn) [Compound 3.30] the value was 153 °C. For `CCOCCN(C(=O)Cc1ccc(F)c(F)c1F)C(C)c1nc2ccccc2c(=O)n1-c1ccc(OCC)cc1` (stereo not drawn) [Compound 3.32] the value was 146.3 °C; for `CCOc1ccc(-n2c(C(C)N(Cc3cccnc3)C(=O)Cc3ccc(F)c(F)c3)nc3ccccc3c2=O)cc1` (stereo not drawn) [Compound 3.34], 75.5 °C; for `C[C@H](c1nc2ccccc2c(=O)n1-c1ccc(F)cc1)N(CCOCC(F)(F)F)C(=O)Cc1ccc(-c2ccccc2)cc1` [Compound 9.03], 167.9 °C. Consider `C[C@H](c1nc2ccccc2c(=O)n1-c1ccc(F)cc1)N(CCOCC(F)(F)F)C(=O)Cc1ccc(C(F)(F)F)cc1` [Compound 9.04], for which the melting point amounted to 156.2 °C.

With `CCOCCN(C(=O)Cc1cccc(C(F)(F)F)c1)C(C)c1nc2ccccc2c(=O)n1-c1ccc(OCC)cc1` (stereo not drawn) [Compound 9.08], the melting point stood at 157.9 °C.
